We go through 7 molecules from patent publication US6479231B1, “Fluorescence-based assay for the interaction of small molecules with the human renal organic anion transporter 1 (hOAT1)” (Gilead Sciences, Inc., priority 1999, dated 2002).

Molecules are shown by their SMILES. Where two headings read alike, the source gives them in different places.

The target in assay [1] is T1, hOAT1 (Homo sapiens, UniProt Q4U2R8).
T1 sequence (Q4U2R8 1-550 isoform Q4U2R8-2): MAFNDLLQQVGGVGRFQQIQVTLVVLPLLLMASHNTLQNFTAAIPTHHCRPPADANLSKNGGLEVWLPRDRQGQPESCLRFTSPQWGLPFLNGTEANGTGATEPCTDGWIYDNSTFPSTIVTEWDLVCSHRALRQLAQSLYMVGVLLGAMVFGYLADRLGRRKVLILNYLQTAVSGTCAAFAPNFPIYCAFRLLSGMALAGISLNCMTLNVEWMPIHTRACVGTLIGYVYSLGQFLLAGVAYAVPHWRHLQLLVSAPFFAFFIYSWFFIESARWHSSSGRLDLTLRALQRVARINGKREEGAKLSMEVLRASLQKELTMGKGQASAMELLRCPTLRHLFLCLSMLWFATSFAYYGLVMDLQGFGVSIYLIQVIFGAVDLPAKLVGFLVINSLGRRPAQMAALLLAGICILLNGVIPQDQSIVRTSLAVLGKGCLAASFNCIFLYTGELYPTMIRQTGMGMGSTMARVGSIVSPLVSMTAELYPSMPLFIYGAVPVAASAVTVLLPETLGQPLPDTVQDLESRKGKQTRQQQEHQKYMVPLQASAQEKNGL
The assay can be described thus: Fluorescent transport assay: accumulation of fluorescent organic anions in CHO^hOAT vs CHO^pIRES cells. As to conditions: 10 μM fluorescent anion, 10 min, room temperature.

The target in assay [2] is T1, hOAT1. Conditions: for Vmax of hOAT1-specific transport / Km: room temperature; for Km: read-out: Km of hOAT1-specific transport.
Experimental: First, a time-course of hOAT1-specific uptake of 6-CFL at various concentrations ranging from 0.31 to 20 μM was determined.
Kinetics of 6-CFL transport mediated by hOAT1. (a) Time course of hOAT1-specific uptake of 6-CFL. CHO^pIRES and CHO^hOAT cells in 96-well plates were incubated at room temperature with 6-CFL at concentrations ranging from 0.31 to 20 μM. At specific time points, the uptake was terminated by washing the cells with ice-cold PBS. After cell lysis, the intracellular fluorescence was determined and the net hOAT1-specific uptake was calculated after the subtraction of non-specific background uptake into CHO^pIRES cells determined under the identical conditions. […] (b) Saturation curve of the hOAT1-specific uptake of 6-CFL at 4-min time points. Km and Vmax values were estimated from the double-reciprocal plot (inset).
Assay [3] addresses T1, hOAT1. The assay can be described thus: Transport kinetics with the radioactive substrates in CHO^hOAT cells. Format: cell-based. On the set-up: expressed in transfected cells; vector pIRESneo. As to conditions: radiolabeled substrates, 3 min at 37° C, mean ± standard error, three to five experiments. Here is the method: The assays were carried out in 12-well plates with nearly confluent cells seeded 48 hours prior to each experiment. Immediately before the experiment, the cells were washed with PBS pre-warmed to 37° C. Pre-warmed Waymouth buffer ([…]) containing radiolabeled substrate at various concentrations was added to the cells and incubated for 3 min at 37° C. At the end of incubation, the cells were washed 3-times with ice-cold PBS (2 ml/well) and lysed directly on the plate in the presence of 0.4% Triton X-100 (0.5 ml/well) for at least 20 min. Subsequently, the wells were washed with an additional 0.5 ml of the detergent, the lysate and wash were combined, and radioactivity in each sample was determined after adding 6 ml of scintillation fluid (Beckman Instruments, Fullerton, Calif.). Km values were estimated by the linear regression from double reciprocal plots using Enzyme Kinetics software (ChemSW, Fairfield, Calif.).

Assay [4] has as its target T1, hOAT1. The assay can be described thus: Fluorescence-based inhibition assay: inhibition of 6-CFL uptake into CHO^hOAT cells. The class given is cell-based. On the set-up: expressed in transfected cells; vector pIRESneo.
The mark [5] stands for this setting: 4-min endpoints, double reciprocal plot.

Take `O=C(O)c1ccc2c(c1)C(=O)OC21c2ccc(O)cc2Oc2cc(O)ccc21` [5-CFL, 5-carboxyfluorescein]: the “hOAT1-mediated transport / accumulation (in words)” value on hOAT1 [1] (CHO^hOAT and CHO^pIRES cells) was “accumulated at very low levels both in CHO^hOAT and CHO^pIRES cells”.
As a reminder, the Km is the substrate concentration at which the rate is half of its maximum. For `O=C(O)c1ccc2c(c1)C1(OC2=O)c2ccc(O)cc2Oc2cc(O)ccc21` [6-CFL, 6-carboxyfluorescein], the “accumulation in CHO^hOAT cells relative to control CHO^pIRES cells” value at hOAT1 [1] is given as “approximately 15 fold”. Also, on hOAT1 [2], the “transport efficiency (Vmax/Km ratio)” value is “comparable to that of PAH”. Besides, at hOAT1 [2] (2-min endpoints), the “Vmax of hOAT1-specific transport” value is listed as 19.7 pmol/10^6 cells·min and the Km stood at 3.95 µM. For the same molecule, on hOAT1 [2] (setting [5]), the “Vmax of hOAT1-specific transport” value is 17.8 pmol/10^6 cells·min and the Km was determined as 3.93 µM.
`Nc1ncnc2c1ncn2CCOCP(=O)(O)O` [Adefovir, 9-(2-phosphonylmethoxyethyl)adenine]: the Km at hOAT1 [3] turned out to be 23.8 ± 4.2 µM. For the same molecule, at hOAT1 [4], the “inhibition of 6-CFL transport (in words)” value was “inhibited the transport of 6-CFL”.
Regarding `CC1=C(C(=O)O)N2C(=O)[C@@H](NC(=O)[C@H](N)C3=CCC=CC3)[C@H]2SC1` [Cephradine], on hOAT1 [4], the “inhibition of 6-CFL transport (in words)” value is “inhibited the transport of 6-CFL”.
Same read-out and setting: then `Nc1ccn(C[C@@H](CO)OCP(=O)(O)O)c(=O)n1` [Cidofovir, (S)-1-(3-hydroxy-2-phosphonylmethoxypropyl)cytosine], with “inhibited the transport of 6-CFL”.
`Nc1ccn(C[C@H]2COP(=O)(O)CO2)c(=O)n1` [Cyclic prodrug of cidofovir, [((S)-1-2-hydroxy-2-oxo-1,4,2-dioxaphosphorinan-5-yl)methyl]cytosine]: the Michaelis constant (Km) on hOAT1 [3] was 309 ± 106 µM. At hOAT1 [4], the “inhibition of 6-CFL transport (in words)” value is recorded as “inhibited the transport of 6-CFL”.
Consider `CC(C(=O)O)c1cccc(C(=O)c2ccccc2)c1` (centres unmarked) [Ketoprofen], for which, on hOAT1 [4], the “inhibition of 6-CFL transport (in words)” value was “inhibited the transport of 6-CFL”.
